# Source: publication PMC8247773, “Benzohydrazide and Phenylacetamide Scaffolds: New Putative ParE Inhibitors” (Frontiers in Bioengineering and Biotechnology, 2021)
# Values joined by “and” are separate entries in the source; they are usually repeats but may differ in a detail not shown here. Equal entries are not always repeated. Where two headings read alike, the source gives them in different places.
# Key:
# [1] = system: MRSA (NCIM 5021); assay: Minimum bactericidal concentration (MBC); type: cell-based, methicillin-resistant Staphylococcus aureus
# Procedure: (§1) MBC can be defined as the minimum concentration of a compound required to kill the bacteria over a fixed period under precise conditions. […] Colonies were counted, and colony forming unit (CFU) per milliliter was calculated.
# [2] = system: MRSA (ATCC43300); assay: Minimum bactericidal concentration (MBC); type: cell-based, methicillin-resistant Staphylococcus aureus
# Procedure: as §1
# [3] = system: E. coli; assay: Post antibiotic effect (PAE); type: cell-based, Escherichia coli; details: for Time for 1 log10: untreated control 2 h
# [4] = system: Escherichia coli (NCIM 2567); set-up: method as in Yele et al., 2020, 2021; details: ref Yele et al., 2020, 2021; cited from earlier work
# [5] = system: E. coli; assay: Checkerboard synergy with FDA approved drugs; type: cell-based, Escherichia coli; details: ciprofloxacin, gentamicin, rifampicin and doxycycline
# [6] = system: Pseudomonas aeruginosa (NCIM 2036); set-up: method as in Yele et al., 2020, 2021; details: ref Yele et al., 2020, 2021; cited from earlier work
# [7] = system: MRSA (ATCC43300); assay: Antibacterial susceptibility test, microbroth dilution MIC; type: cell-based, methicillin-resistant Staphylococcus aureus; details: mean ± SD
# [8] = system: Escherichia coli (NCIM 2065); assay: as above; type: cell-based; details: E. Coli (NCIM 2065), mean ± SD
# [9] = system: E. coli; assay: Time-kill kinetics; type: cell-based, Escherichia coli; details: 0.5× and 1.0× MIC, 0-24 h
# Procedure: Bactericidal activity was evaluated for the compounds by the time-kill kinetics. […] 50 μL aliquot of the culture was inoculated at regular time intervals of 0, 2, 4, 8, 16, and 24 h onto the solidified agar plates, followed by incubation at 37°C for 24 h. Ciprofloxacin is used as a reference throughout the study. CFU was calculated by the colonies formed on the agar plate at each time interval. Time-kill curves were plotted using the CFU/mL of surviving bacteria at each time point in the absence or presence of the compound ([Tsuji et al., 2008]).
# [10] = system: Mycobacterium tuberculosis (NCIM 2984); set-up: method as in Yele et al., 2020, 2021; details: ref Yele et al., 2020, 2021; cited from earlier work
# [11] = system: Vero cells; assay: In vitro cytotoxicity MTT assay; details: CC50 Vero cells / IC50
# [12] = biological target: T1, E. coli ParE enzyme (Escherichia coli, UniProt P20083); assay: E. coli ParE ATPase enzyme inhibition assay (ProFoldin kit, malachite green); type: biochemical; details: ATPase activity, mean ± SD (n = 3)
# T1 construct: purchased ProFoldin, Hudson, United States
# T1 sequence (P20083 whole entry): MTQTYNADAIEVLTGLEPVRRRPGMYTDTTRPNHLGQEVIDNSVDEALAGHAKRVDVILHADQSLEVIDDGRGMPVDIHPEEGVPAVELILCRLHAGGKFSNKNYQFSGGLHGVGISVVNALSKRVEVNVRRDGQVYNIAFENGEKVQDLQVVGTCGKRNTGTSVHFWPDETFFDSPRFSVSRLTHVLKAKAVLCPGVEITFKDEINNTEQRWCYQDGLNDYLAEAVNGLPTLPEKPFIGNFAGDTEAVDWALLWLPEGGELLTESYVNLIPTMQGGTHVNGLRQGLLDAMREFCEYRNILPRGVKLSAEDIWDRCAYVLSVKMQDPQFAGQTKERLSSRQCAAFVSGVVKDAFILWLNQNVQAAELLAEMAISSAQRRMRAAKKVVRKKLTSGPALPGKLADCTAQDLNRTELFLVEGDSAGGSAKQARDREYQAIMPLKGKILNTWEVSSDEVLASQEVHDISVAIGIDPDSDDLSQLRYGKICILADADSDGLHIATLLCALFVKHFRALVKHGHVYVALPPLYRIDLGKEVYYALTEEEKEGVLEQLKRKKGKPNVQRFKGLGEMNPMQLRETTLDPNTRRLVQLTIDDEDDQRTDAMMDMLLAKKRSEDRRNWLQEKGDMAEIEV
# T1 sequence (P0AFI2 whole entry, further chain): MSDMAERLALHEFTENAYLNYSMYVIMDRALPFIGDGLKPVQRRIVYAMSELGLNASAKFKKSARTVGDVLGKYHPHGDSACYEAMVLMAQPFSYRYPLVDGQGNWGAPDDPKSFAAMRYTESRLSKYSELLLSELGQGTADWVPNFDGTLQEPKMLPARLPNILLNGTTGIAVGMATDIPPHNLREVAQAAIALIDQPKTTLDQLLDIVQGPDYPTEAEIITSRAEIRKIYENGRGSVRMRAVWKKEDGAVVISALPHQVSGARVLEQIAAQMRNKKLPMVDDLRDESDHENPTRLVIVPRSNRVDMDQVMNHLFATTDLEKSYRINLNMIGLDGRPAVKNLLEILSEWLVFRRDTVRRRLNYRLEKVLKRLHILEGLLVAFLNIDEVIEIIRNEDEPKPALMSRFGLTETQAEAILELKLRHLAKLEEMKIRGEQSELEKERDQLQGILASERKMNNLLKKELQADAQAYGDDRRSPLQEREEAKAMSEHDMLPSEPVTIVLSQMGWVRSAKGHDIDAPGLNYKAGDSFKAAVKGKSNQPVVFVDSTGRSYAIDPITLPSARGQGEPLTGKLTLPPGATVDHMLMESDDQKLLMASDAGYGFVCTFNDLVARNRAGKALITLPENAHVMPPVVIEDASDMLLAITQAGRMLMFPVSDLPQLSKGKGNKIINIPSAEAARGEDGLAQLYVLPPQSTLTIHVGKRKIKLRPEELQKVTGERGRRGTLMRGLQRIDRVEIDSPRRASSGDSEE
# Method in brief: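 E. coli ParE ATPase activity measured as inorganic phosphate released from ATP hydrolysis in the presence of DNA. Reaction ran 1 h at 37°C, quenched with malachite green dye, absorbance read at 650 nm after 5 min. IC50 from non-linear regression against no-enzyme and no-compound controls.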
# [13] = system: Klebsiella pneumonia (NCIM 2706); set-up: method as in Yele et al., 2020, 2021; details: ref Yele et al., 2020, 2021; cited from earlier work
# [14] = system: Staphylococcus epidermis (NCIM 2493); set-up: method as in Yele et al., 2020, 2021; details: ref Yele et al., 2020, 2021; cited from earlier work
# [15] = system: Staphylococcus aureus (NCIM 5022); set-up: method as in Yele et al., 2020, 2021; details: ref Yele et al., 2020, 2021; cited from earlier work
# [16] = system: Vero cells
# [17] = system: MRSA (NCIM 5021); assay: Antibacterial susceptibility test, microbroth dilution MIC; type: cell-based, methicillin-resistant Staphylococcus aureus; details: mean ± SD
# [18] = system: Escherichia coli (NCIM 2065); assay: Minimum bactericidal concentration (MBC); type: cell-based; details: E. Coli (NCIM 2065); for MBC/MIC: ratio ≤2 bactericidal, ≥4 tolerance
# Procedure: as §1
# [19] = system: Bacillus subtilis (NCIM 2545); set-up: method as in Yele et al., 2020, 2021; details: ref Yele et al., 2020, 2021; cited from earlier work
# [20] = system: Salmonella typhi (NCIM 2501); set-up: method as in Yele et al., 2020, 2021; details: ref Yele et al., 2020, 2021; cited from earlier work
# [21] = In vitro cytotoxicity MTT assay; details: African green monkey, Vero cells
# [22] = Staphylococcus aureus, read-out: MBC
# [23] = Staphylococcus aureus, read-out: Minimum inhibitory concentration
compound,measurement,setting,value
O=C(COc1ccccc1NC(=O)CCl)Nc1ccc(C(=O)O)cc1Br [Compound 5],MBC,[1],1.54 ± 0.11 µg/mL
same,MBC/MIC,[1],2
same,MBC,[2],0.68 ± 0.08 µg/mL
same,MBC/MIC,[2],1
same,PAE = T - C,[3]; 1 × mic,1 h
same,Time for 1 log10,[3]; 1 × mic,3 h
same,PAE = T - C,[3]; 10 × mic,~2 h
same,Time for 1 log10,[3]; 10 × mic,4 h
same,Minimum inhibitory concentration (MIC) E. c,[4],8.25
same,Synergy with FDA-approved antibiotics,[5],synergized
same,Minimum inhibitory concentration (MIC) P. a,[6],6.25
same,Minimum inhibitory concentration,[7],0.68 µg/mL and 0.68 ± 0.08 µg/mL
same,Minimum inhibitory concentration,[8],0.64 µg/mL and 0.64 ± 0.03 µg/mL
same,Time-kill kinetics result,[9],bactericidal property
same,Minimum inhibitory concentration (MIC) M. t,[10],0.78
same,SI (CC50/IC50),[11],176.4531
same,IC50 against E. coli ParE enzyme,[12],0.35 ± 0.03 µg/mL
same,Minimum inhibitory concentration (MIC) K. p,[13],7.52
same,Minimum inhibitory concentration (MIC) S. e,[14],5.63
same,Minimum inhibitory concentration (MIC) S. a,[15],2.64
same,CC50,[16],61.7583 µg/mL
same,Minimum inhibitory concentration,[17],0.72 ± 0.05 µg/mL
same,MBC,[18],0.64 ± 0.42 µg/mL
same,MBC/MIC,[18],1
same,Minimum inhibitory concentration (MIC) B. s,[19],7.82
O=C(CCl)Nc1ccccc1OCC(=O)Nc1ccc(C(=O)O)cc1[N+](=O)[O-] [Compound 8],MBC/MIC,[1],1
same,MBC,[1]; [22],0.63 ± 0.13 µg/mL
same,MBC/MIC,[2],2
same,MBC,[2]; [22],2.46 ± 0.12 µg/mL
same,Minimum inhibitory concentration (MIC) S. t,[20],0.72
same,Minimum inhibitory concentration (MIC) E. c,[4],0.70
same,Minimum inhibitory concentration (MIC) P. a,[6],0.69
same,MIC,[7]; [23],1.06 ± 0.12 µg/mL
same,MIC,"[8]; Escherichia coli, NCIM2065, read-out: Minimum inhibitory concentration",0.93 ± 0.03 µg/mL
same,Minimum inhibitory concentration (MIC) M. t,[10],1.38
same,CC50 at 48 h,[21],257 µg/mL
same,IC50,[12]; read-out: IC50 against E. coli ParE enzyme (converted),662 nM
same,Minimum inhibitory concentration (MIC) K. p,[13],0.72
same,Minimum inhibitory concentration (MIC) S. e,[14],4.83
same,Minimum inhibitory concentration (MIC) S. a,[15],8.64
same,MIC,[17]; [23],0.66 µg/mL
same,Minimum inhibitory concentration,[17],0.66 ± 0.13 µg/mL
same,MBC/MIC,[18],1
same,MBC,"[18]; Escherichia coli, NCIM2065, read-out: MBC",0.93 ± 0.03 µg/mL
same,Minimum inhibitory concentration (MIC) B. s,[19],7.80
